Here are results for 13 compounds from paper PMC9511483, “Refinement of Computational Access to Molecular Physicochemical Properties: From Ro5 to bRo5” (Journal of Medicinal Chemistry, 2022).

Series [1] can be described thus: log Ptol, miniaturized shake-flask toluene/water. The series is classed as physicochemical. On the procedure:
log Ptol was determined with an automated, miniaturized shake flask method in a 96-well format according to the protocol described by Shalaeva and co-workers.[24]

The nature of series [2]: EPSA supercritical fluid chromatography polarity. Format: physicochemical. Conditions: SFC, Chirex 3014. On the procedure:
EPSA was determined following the SFC protocol by Goetz and co-workers.[17] Briefly, a polar stationary phase (Chirex 3014) and a nonpolar mobile phase (supercritical CO2 with the addition of 20 mM ammonium formate in methanol as a modifier) were used to enable separation of compounds based on their polarity. The modifier was varied in 11 min from 5% to 60% at 5%/min in a linear gradient, holding at 60% for 4.9 min and reverting to the original 5% in 0.1 min. The flow rate was 5 mL/min, with the outlet back pressure set to 100 bar instead of 140 bar of the original method. Samples were dissolved in DMSO, the injection volume was 5 μL. The column temperature was set to 40 °C.

Series [3] can be described thus: Δlog Poct-tol IMHB propensity. The series is classed as physicochemical. The settings on record: difference between log Poct and log Ptol. The text has this:
Δlog Poct-tol([24]) (the difference between log Poct and log Ptol) is an indicator of the capacity of a compound to expose HDon groups, and thus it quantifies the molecular capacity to form dynamic IMHBs. […] Our data support that Saquinavir is the compound with the highest capacity to form IMHB, its Δlog Poct-tol being 0.79. Pomalidomide and CMP 98 show poorer propensity to mask HDon groups, although not negligible.

Series [4] can be described thus: BRlogD chromatographic lipophilicity (XBridge Shield RP18). Format: physicochemical. The method, then: (§1) Mobile phases consisted of an isocratic solution of 20 mM ammonium acetate at pH 7.0 and acetonitrile at various percentages (see specific method). Samples were dissolved in buffer/acetonitrile at concentrations ranging from 50 to 100 μg/mL. Chromatographic measurements were analyzed in duplicate. Then 10 μL of each solution (volume of injection) were injected at an isocratic 1 mL/min flow rate, analyzed at 30 °C (oven temperature). Each chromatographic descriptor required a specific HPLC method (see below).
The three compounds previously dissolved in ACN were injected into the X-Bridge column (mobile phase: 40% buffer, 60% ACN), and the retention times and dead time (t0, baseline disturbance) were recorded. Consequently, capacity factor log k′60 was calculated (log k′60 = [tR – t0]/t0). The corresponding BRlogD value was obtained using equation: BRlogD = 3.31 × log k′60 + 2.79.[12] The used standard is acetone, caffeine, ibuprophen, lidocaine, phenol and a mixture of uracile, acetophenone and toluene.

Series [5] is described as follows: log kW^IAM chromatographic lipophilicity (IAM.PC.DD2 column). The series is classed as physicochemical. The settings on record: extrapolated to 100% buffer, pH 7.0. The method, then: as §1
Dissolved samples were injected into column IAM.PC.DD2, and retention times were recorded at different mobile phase percentages (from 10 to 50% ACN). Capacity factor was calculated for each mobile phase condition using equation: k′ = [tR – t0]/t0) t0 being the retention time of a nonretained molecule (citric acid). The log kW^IAM value for each molecule was calculated by extrapolating the 100% buffer value (0% ACN) from the equation obtained with the five mobile phase conditions, previously mentioned. In addition, five standards (caffeine, carbamazepine, ketoprofen, theobromine, and toluene) were examined on a daily basis.[33]

The nature of series [6]: Thermodynamic solubility. Format: physicochemical. Conditions: for solubility: 25 °C, thermodynamic from solid, thermodynamic solubility, read-out: Solubility 25ºC log S (converted). The method, then: Table S1: Thermodynamic solubility and permeability data of the three selected compounds.
Solubility 25 °C Permeability
Molecules log S (mol/l) (cm/s x 10 )

Series [7] can be described thus: PLRP-S retention at 50-100% ACN (chameleonicity). The series is classed as physicochemical. Conditions: mobile phases 50 to 100% ACN. From the text:
In a recent paper, we proposed to monitor the propensity of compounds to assume a chameleonic behavior through the analysis of the variation of the capacity factor in a nonpolar polymeric chromatographic system, named PLRP-S.[16] Here we applied the same approach and determined the retention of the three compounds in the PLRP-S system with various mobile phases (from 50 to 100% ACN). According to the reverse-phase (RP) nature of the system, the retention time (and thus log k′ PLRP-S) of lipophilic molecules is expected to decrease when increasing the amount of acetonitrile in the mobile phase. […] This experimental finding can be explained by a propensity of Saquinavir to change its conformation in a nonpolar environment, masking its polarity supporting the chameleonic properties of this compound.

Series [8] has as its system Caco-2. Conditions: cited from earlier work.
Series [9] is described as follows: Δlog kW^IAM polarity descriptor. The series is classed as physicochemical. Conditions: experimental log kW^IAM minus clog kW^IAM from BRlogD. From the text:
Δlog kW^IAM was earlier defined by Grumetto et al.[48] as (Δlog kW^IAM = experimental log kW^IAM – clog kW^IAM (log kW^IAM for neutral and nonpolar compounds with PSA = 0). Moreover, clog kW^IAM was correlated to log P (octanol/water)[48] and more recently to BRlogD[12] with equation (clog kW^IAM = BRlogD* 0.92–1.03). Therefore, the measurement of BRlogD and log kW^IAM for the three samples allowed to calculate polarity descriptor Δlog kW^IAM.

Series [10] can be described thus: log k′80 PLRP-S chromatographic lipophilicity. Format: physicochemical. The settings on record: 80% ACN. The method, then: as §1
The retention times of the three samples were recorded at 80% ACN and capacity factors were calculated. Moreover, gold standards (acetone, caffeine, phenol, uracil–acetophenone--toluene mix and benzene) were daily checked.[15]

On the set-up of series [11]: method as in PMID 29608068. The settings on record: cited from earlier work.
For series [12] the following is noted: SI Table S1; cited from earlier work.
On the set-up of series [13]: method as in Clark 1999. Conditions: atom selection N, O, S, P, H; ref Clark 1999; cited from earlier work.

In brackets after ≈: the same amount, converted by molar mass.

With `Nc1cccc2c1C(=O)N(C1CCC(=O)NC1=O)C2=O` (stereo not drawn) [Pomalidomide], the “log Ptol (SF)” value in series [1] is on record as -0.22. In series [2], the EPSA is 82 A^2. Besides, in [3], the “Δlog P (Δlog Poct-tol)” value was determined as 1.63. The compound also had a BRlogD in series [4] (60% ACN, ammonium acetate pH 7.0) of 1.41. Moreover, the “log kW^IAM” value in [5] is reported as 0.91. In [6], the solubility was 28.2 µM (≈ 7.7 µg/mL). For the same compound, the “log k′ PLRP-S behaviour with increasing acetonitrile (chameleonicity index)” value in [7] was “about in line with expectations”. In addition, in [8] (Caco-2, ref 13 (SI)), the “Permeability (Caco-2)” value was 24.9 cm/s x 10^-6. The “Δlog kW^IAM” value in [9] is on record as 0.64. Further, in [10], the “log k´80 PLRP-S” value is on record as -0.65.
With `CC(C)(C)NC(=O)[C@@H]1C[C@@H]2CCCC[C@@H]2CN1C[C@@H](O)[C@H](Cc1ccccc1)NC(=O)[C@H](CC(N)=O)NC(=O)c1ccc2ccccc2n1` [Saquinavir], in series [1], the “log Ptol (SF)” value was 2.06. The compound further had an EPSA in series [2] of 94 A^2. In series [3], the “Δlog P (Δlog Poct-tol)” value was 0.79. Further, the pKa in [11] was 7.1. The BRlogD in [4] (pH 7) worked out at 2.85. In addition, the “log kW^IAM” value in [5] is given as 3.44. For the same compound, in [7], the “log k′ PLRP-S behaviour with increasing acetonitrile (chameleonicity index)” value was “significantly higher than expected”. Besides, the “Permeability (Caco-2 with efflux inhibiton)” value in series [8] (Caco-2 with efflux inhibition, ref 11 (SI)) is on record as 5.0 cm/s x 10^-6. Also, the “Permeability mechanism” value in [8] (ref 11 (SI)) is given as “Mainly active transport”. In series [9], the “Δlog kW^IAM” value was determined as 1.85. In addition, in [10], the “log k´80 PLRP-S” value is -0.1.
Regarding `Cc1ncsc1-c1ccc(CNC(=O)[C@@H]2C[C@H](O)CN2C(=O)[C@@H](NC(=O)COCCOCCOCCOCCOCCOCC(=O)N[C@H](C(=O)N2C[C@@H](O)C[C@H]2C(=O)NCc2ccc(-c3scnc3C)cc2)C(C)(C)C)C(C)(C)C)cc1` [CMP 98], in [1], the “log Ptol (SF)” value is recorded as -0.24. Also, the EPSA in series [2] came out at 104 A^2. For the same compound, the “Δlog P (Δlog Poct-tol)” value in [3] is on record as 1.62. For the same compound, the “PAMPA permeability” value in series [12] is reported as “not PAMPA permeable”. The chromatographic logD in [4] (XBridge Shield RP18 HPLC column, 60% ACN, ammonium acetate pH 7.0) was 1.38. In addition, in series [5], the “log kW^IAM” value is recorded as 2.34. Further, in series [6], the solubility is 331 µM (≈ 391 µg/mL). In series [6] (SI Table S1), the “water solubility” value was “water-soluble”. In addition, the “log k′ PLRP-S behaviour with increasing acetonitrile (chameleonicity index)” value in series [7] is on record as “some deviation from linearity”. The “Δlog kW^IAM” value in [9] is listed as 2.1. Besides, in [10], the “log k´80 PLRP-S” value was -0.84.
Regarding `O=C1CN=C(c2ccccn2)c2cc(Br)ccc2N1` [Bromazepam], the 3D PSA PSA Clark 1999 in [13] is 57.4 Å2.
Regarding `Nc1nnc(-c2cccc(Cl)c2Cl)c(N)n1` [Lamotrigine], in [13], the 3D PSA PSA Clark 1999 is 96.4 Å2.
As for `O=C(O)c1ccccc1O` [Salicylic Acid], in series [13], the 3D PSA PSA Clark 1999 is 62.5 Å2.
As for `CC(=O)Nc1ccc(O)cc1` [Acetaminophen], the 3D PSA PSA Clark 1999 in series [13] is 58.5 Å2.
On to `O=c1ccc2ccccc2o1` [Coumarin], for which, in series [13], the 3D PSA PSA Clark 1999 was 33.9 Å2.
`CN1C(=O)C(O)N=C(c2ccccc2Cl)c2cc(Cl)ccc21` (stereo not drawn) [Lormetazepam]: the 3D PSA PSA Clark 1999 in series [13] is 55.9 Å2.
For the compound `Cn1c(=O)c2c(ncn2C)n(C)c1=O` [Caffeine], the 3D PSA PSA Clark 1999 in series [13] is 59.2 Å2.
As to `CC(=O)[C@H]1CC[C@H]2[C@@H]3CCC4=CC(=O)CC[C@]4(C)[C@H]3CC[C@]12C` [Progesterone], in series [13], the 3D PSA PSA Clark 1999 was 41.2 Å2.
Turning to `Cn1c(=O)c2[nH]cnc2n(C)c1=O` [Theophylline], in [13], the 3D PSA PSA Clark 1999 is 74.7 Å2.
Consider `Cc1cc(=O)n(-c2ccccc2)n1C` [Phenazone], for which the 3D PSA PSA Clark 1999 in series [13] is 28 Å2.
